Assay results from patent publication US11124554B2, “Modified ligand-gated ion channels and methods of use” (Howard Hughes Medical Institute, priority 2016, dated 2021).
“Also recorded” adds a separate entry of the source. Read-outs that look alike come from different tables or passages of the source.

Experiments:
α7-5HT3 = target: T1, α7-5HT3 (Homo sapiens, UniProt P36544, M226I/T225I); experiment: Agonist potency (EC50), HEK cells expressing chimeric channel; format: cell-based, human α7 nAChR LBD, murine 5HT3 IPD
T1 construct: expressed in transfected cells; host or cells: HEK cells
T1 sequence (P36544 with tags, fused parts or gaps T225I/M226I): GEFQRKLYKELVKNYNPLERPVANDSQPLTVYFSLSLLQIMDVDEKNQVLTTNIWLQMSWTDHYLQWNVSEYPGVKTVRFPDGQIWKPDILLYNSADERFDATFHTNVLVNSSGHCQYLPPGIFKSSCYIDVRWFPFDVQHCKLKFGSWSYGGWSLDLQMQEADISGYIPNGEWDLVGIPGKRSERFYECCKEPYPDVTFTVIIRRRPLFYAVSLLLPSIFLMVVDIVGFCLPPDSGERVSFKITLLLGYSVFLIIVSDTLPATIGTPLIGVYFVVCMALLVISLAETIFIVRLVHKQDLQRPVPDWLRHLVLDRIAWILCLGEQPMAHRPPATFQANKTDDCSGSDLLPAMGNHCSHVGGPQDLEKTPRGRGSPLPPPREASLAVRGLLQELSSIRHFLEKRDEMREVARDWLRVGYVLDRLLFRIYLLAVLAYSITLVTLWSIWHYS

α7^Y115F,G175K-GlyR = target: T2, α7^Y115F,G175K-GlyR (Homo sapiens, UniProt P36544, G175K/Y115F); experiment: Agonist potency at chimeric channel; format: cell-based; settings: for EC50: Table 6, read-out: Potency, a7GlyR Y115F G175K
T2 construct: expressed in transfected cells
T2 sequence (P36544 with tags, fused parts or gaps Y115F/G175K): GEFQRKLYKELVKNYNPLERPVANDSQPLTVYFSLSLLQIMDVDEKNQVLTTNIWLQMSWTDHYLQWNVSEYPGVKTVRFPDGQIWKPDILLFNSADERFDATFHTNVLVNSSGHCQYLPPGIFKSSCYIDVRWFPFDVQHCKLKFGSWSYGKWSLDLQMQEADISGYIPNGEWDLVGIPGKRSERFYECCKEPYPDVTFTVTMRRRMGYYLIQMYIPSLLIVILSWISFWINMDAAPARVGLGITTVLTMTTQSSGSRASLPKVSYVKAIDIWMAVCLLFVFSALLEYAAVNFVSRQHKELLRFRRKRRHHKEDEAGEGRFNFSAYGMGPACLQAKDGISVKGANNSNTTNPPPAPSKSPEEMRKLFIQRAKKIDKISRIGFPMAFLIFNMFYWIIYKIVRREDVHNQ

[1] = target: T3, α7GlyR Q79G G175K Y115F R27D E41R (Homo sapiens, UniProt P36544, E41R/G175K/Q79G/R27D/Y115F); experiment: Agonist potency at chimeric channel; format: cell-based; settings: Table 6; read-out: Potency, a7GlyR Q79G G175K Y115F R27D E41R
T3 construct: expressed in transfected cells
T3 sequence (P36544 with tags, fused parts or gaps R27D/E41R/Q79G/Y115F/G175K): as the sequence (P36544 with tags, fused parts or gaps Y115F/G175K) above, with R5D, E19R, Q57G counted along it

α7^Q79G,Y115F,G175K-GlyR = target: T4, α7^Q79G,Y115F,G175K-GlyR (Homo sapiens, UniProt P36544, G175K/Q79G/Y115F); experiment: Agonist potency at chimeric channel; format: cell-based; settings: Table 6; read-out: Potency, a7Gly Q79G G175K Y115F
T4 construct: expressed in transfected cells
T4 sequence (P36544 with tags, fused parts or gaps Q79G/Y115F/G175K): as the sequence (P36544 with tags, fused parts or gaps Y115F/G175K) above, with Q57G counted along it

α7^G175K-GlyR = target: T5, α7^G175K-GlyR (Homo sapiens, UniProt P36544, G175K); experiment: Agonist potency at chimeric channel; format: cell-based
T5 construct: expressed in transfected cells
T5 sequence (P36544 with tags, fused parts or gaps G175K): as the sequence (P36544 with tags, fused parts or gaps Y115F/G175K) above, with F93Y counted along it

α7^Q79G,G175K-GlyR = target: T6, α7^Q79G,G175K-GlyR (Homo sapiens, UniProt P36544, G175K/Q79G); experiment: Agonist potency at chimeric channel; format: cell-based; settings: Table 6; read-out: Potency, a7GlyR Q79G G175K
T6 construct: expressed in transfected cells
T6 sequence (P36544 with tags, fused parts or gaps Q79G/G175K): as the sequence (P36544 with tags, fused parts or gaps Y115F/G175K) above, with Q57G, F93Y counted along it

α7^W77F,Q79G,G175K-GlyR = target: T7, α7^W77F,Q79G,G175K-GlyR (Homo sapiens, UniProt P36544, G175K/Q79G/W77F); experiment: Agonist potency at chimeric channel; format: cell-based; settings: Table 6; read-out: Potency, a7GlyR W77F Q79G G175K
T7 construct: expressed in transfected cells
T7 sequence (P36544 with tags, fused parts or gaps W77F/Q79G/G175K): as the sequence (P36544 with tags, fused parts or gaps Y115F/G175K) above, with W55F, Q57G, F93Y counted along it

α7-GlyR = target: T8, α7-GlyR (Homo sapiens, UniProt P36544); experiment: Agonist potency (EC50), HEK cells expressing chimeric channel; format: cell-based
T8 construct: expressed in transfected cells; host or cells: HEK cells
T8 sequence (P36544 with tags, fused parts or gaps): as the sequence (P36544 with tags, fused parts or gaps Y115F/G175K) above, with F93Y, K153G counted along it

[2] = test system: α7GlyR chimeric channels with G175K and A298G mutations; format: cell-based, human
α7^Q79A-GlyR = target: T9, α7^Q79A-GlyR (Homo sapiens, UniProt P36544, Q79A); experiment: Agonist potency (EC50), HEK cells expressing chimeric channel; format: cell-based; settings: HEK cells; Table 2; read-out: Mean EC50 and SEM in parentheses, α7^Q79A-GlyR
T9 construct: expressed in transfected cells; host or cells: HEK cells
T9 sequence (P36544 with tags, fused parts or gaps Q79A): as the sequence (P36544 with tags, fused parts or gaps Y115F/G175K) above, with Q57A, F93Y, K153G counted along it

α7^Q79G-GlyR^A298G = target: T10, α7^Q79G-GlyR^A298G (Homo sapiens, UniProt P36544, A298G/Q79G); experiment: as above; format: cell-based; settings: HEK cells; Table 2; read-out: Mean EC50 and SEM in parentheses, α7^Q79G-GlyR^A298G
T10 construct: expressed in transfected cells; host or cells: HEK cells
T10 sequence (P36544 with tags, fused parts or gaps Q79G): as the sequence (P36544 with tags, fused parts or gaps Y115F/G175K) above, with Q57G, F93Y, K153G, A276G counted along it

α7^Q79G-GlyR = target: T11, α7^Q79G-GlyR (Homo sapiens, UniProt P36544, Q79G); experiment: as above; format: cell-based; settings: HEK cells; Table 2; read-out: Mean EC50 and SEM in parentheses, α7^Q79G-GlyR
T11 construct: expressed in transfected cells; host or cells: HEK cells
T11 sequence (P36544 with tags, fused parts or gaps Q79G): as the sequence (P36544 with tags, fused parts or gaps Y115F/G175K) above, with Q57G, F93Y, K153G counted along it

α7-GlyR^A298G = target: T12, α7-GlyR^A298G (Homo sapiens, UniProt P36544, A298G); experiment: as above; format: cell-based; settings: HEK cells; Table 2; read-out: Mean EC50 and SEM in parentheses, α7-GlyR^A298G
T12 construct: expressed in transfected cells; host or cells: HEK cells
T12 sequence (P36544 with tags, fused parts or gaps, stated change not applied): as the sequence (P36544 with tags, fused parts or gaps Y115F/G175K) above, with F93Y, K153G, A276G counted along it

α7^Q79A-5HT3 = target: T13, α7^Q79A-5HT3 (Homo sapiens, UniProt P36544, M226I/Q79A/T225I); experiment: as above; format: cell-based, human α7 nAChR LBD, murine 5HT3 IPD; settings: HEK cells; Table 1; read-out: Mean EC50, α7^Q79A-5HT3
T13 construct: expressed in transfected cells; host or cells: HEK cells
T13 sequence (P36544 with tags, fused parts or gaps Q79A/T225I/M226I): as the sequence (P36544 with tags, fused parts or gaps T225I/M226I) above, with Q57A counted along it

α7^Q79G-5HT3 = target: T14, α7^Q79G-5HT3 (Homo sapiens, UniProt P36544, M226I/Q79G/T225I); experiment: as above; format: cell-based, human α7 nAChR LBD, murine 5HT3 IPD; settings: HEK cells; Table 1; read-out: Mean EC50, α7^Q79G-5HT3
T14 construct: expressed in transfected cells; host or cells: HEK cells
T14 sequence (P36544 with tags, fused parts or gaps Q79G/T225I/M226I): as the sequence (P36544 with tags, fused parts or gaps T225I/M226I) above, with Q57G counted along it

α7^Q79S-5HT3 = target: T15, α7^Q79S-5HT3 (Homo sapiens, UniProt P36544, M226I/Q79S/T225I); experiment: as above; format: cell-based, human α7 nAChR LBD, murine 5HT3 IPD; settings: HEK cells; Table 1; read-out: Mean EC50, α7^Q79S-5HT3
T15 construct: expressed in transfected cells; host or cells: HEK cells
T15 sequence (P36544 with tags, fused parts or gaps Q79S/T225I/M226I): as the sequence (P36544 with tags, fused parts or gaps T225I/M226I) above, with Q57S counted along it

α7^L131G-5HT3 HC = experiment: Agonist potency at chimeric channel (Table 9); format: cell-based, human; settings: α7^L131G-5HT3 HC
α7^Y115F-GlyR G175F = target: T16, α7^Y115F-GlyR G175F (Homo sapiens, UniProt P36544, G175F/Y115F); experiment: Agonist potency at chimeric channel (Table 8); format: cell-based; settings: relative to α7^Y115F-GlyR
T16 construct: expressed in transfected cells
T16 sequence (P36544 with tags, fused parts or gaps Y115F/G175F): as the sequence (P36544 with tags, fused parts or gaps Y115F/G175K) above, with K153F counted along it

[3] = test system: mouse cortical neurons transduced with α7^Q79G-GlyR^A298G; experiment: Action potential firing of transduced cortical neurons; format: cell-based; settings: 30 nM; 40 pA current injection; restored after washout
From the text: After washout (WASH) of tropisetron, neuron firing is restored.
(§1) AAVs or DNA plasmids containing nucleic acids encoding a α7^Q79G-GlyR^A298G or α7Q79G,Y115F,G175K-GlyR chimeric LGICs were transduced into mouse cortical neurons. […] Neuron activity was silenced by application of low concentration of agonist (FIG. 7 and FIG. 8C).

α7^Y115F-GlyR G175S = target: T17, α7^Y115F-GlyR G175S (Homo sapiens, UniProt P36544, G175S/Y115F); experiment: Agonist potency at chimeric channel (Table 8); format: cell-based; settings: relative to α7^Y115F-GlyR
T17 construct: expressed in transfected cells
T17 sequence (P36544 with tags, fused parts or gaps Y115F/G175S): as the sequence (P36544 with tags, fused parts or gaps Y115F/G175K) above, with K153S counted along it

α7^Q79S,L131G,Q139L-GlyR = target: T18, α7^Q79S,L131G,Q139L-GlyR (Homo sapiens, UniProt P36544, L131G/Q139L/Q79S); experiment: cell-based; format: cell-based; settings: α7^Q79S,L131G,Q139L-GlyR
T18 construct: expressed in transfected cells
T18 sequence (P36544 with tags, fused parts or gaps Q79S/L131G/Q139L): as the sequence (P36544 with tags, fused parts or gaps Y115F/G175K) above, with Q57S, F93Y, L109G, Q117L, K153G counted along it

α7^Y115F-GlyR G175V = target: T19, α7^Y115F-GlyR G175V (Homo sapiens, UniProt P36544, G175V/Y115F); experiment: Agonist potency at chimeric channel (Table 8); format: cell-based; settings: relative to α7^Y115F-GlyR
T19 construct: expressed in transfected cells
T19 sequence (P36544 with tags, fused parts or gaps Y115F/G175V): as the sequence (P36544 with tags, fused parts or gaps Y115F/G175K) above, with K153V counted along it

α7^Y115F-GlyR G175R = target: T20, α7^Y115F-GlyR G175R (Homo sapiens, UniProt P36544, G175R/Y115F); experiment: Agonist potency at chimeric channel (Table 8); format: cell-based; settings: relative to α7^Y115F-GlyR
T20 construct: expressed in transfected cells
T20 sequence (P36544 with tags, fused parts or gaps Y115F/G175R): as the sequence (P36544 with tags, fused parts or gaps Y115F/G175K) above, with K153R counted along it

α7^Q79S,L131G-GlyR = target: T21, α7^Q79S,L131G-GlyR (Homo sapiens, UniProt P36544, L131G/Q79S); experiment: Agonist potency at chimeric channel (Table 9); format: cell-based; settings: α7^Q79S,L131G-GlyR
T21 construct: expressed in transfected cells
T21 sequence (P36544 with tags, fused parts or gaps Q79S/L131G): as the sequence (P36544 with tags, fused parts or gaps Y115F/G175K) above, with Q57S, F93Y, L109G, K153G counted along it

[4] = test system: mouse cortical neurons transduced with α7^Q79G,Y115F,G175K-GlyR; experiment: Action potential firing of transduced cortical neurons; format: cell-based; settings: 100 nM; current injection; restored after washout
From the text: FIGS. 8A-8C show activity of agonists on chimeric LGICs with a G175K mutation. FIG. 8A) A graph of EC50s for Q79G G175K LBD mutants against known agonists normalized to the unmodified α7-GlyR chimeric channel (log scale). […] Unmod.: unmodified α7-GlyR chimeric LGIC. FIG. 8C) Action potentials of cortical neurons from a mouse brain transduced with α7^Q79G,Y115F,G175K-GlyR chimeric LGIC. […] After washout (WASH) of tropisetron, neuron firing is restored
as §1

[5] = Table 6, read-out: Potency, a7-5HT3
[6] = α7GlyR Q79G A298G G175K Y115F; read-out: Agonist potency

## Fc1c(Cl)cccc1NC(=S)N[C@H]1CN2CCC1CC2 [Compound 701]
α7-5HT3; [5]
  EC50: > 100 µM

## Fc1ccc(NC(=S)N[C@H]2CN3CCC2CC3)cc1Cl [Compound 702]
α7-5HT3; [5]
  EC50: > 100 µM

## Fc1ccc(Cl)cc1NC(=S)N[C@H]1CN2CCC1CC2 [Compound 703]
α7-5HT3; [5]
  EC50: > 100 µM

## Cc1ccc(Cl)cc1NC(=S)N[C@H]1CN2CCC1CC2 [Compound 705]
α7^Y115F,G175K-GlyR
  EC50: > 10 µM
α7-5HT3; [5]
  EC50: > 100 µM

## FC(F)(F)Oc1ccc(NC(=S)N[C@@H]2CN3CCC2CC3)cc1 [Compound 713]
[1]
  EC50: > 10000 nM
α7^Y115F,G175K-GlyR
  EC50: > 10 µM
α7^Q79G,Y115F,G175K-GlyR
  EC50: 23.9 µM
α7^G175K-GlyR; Table 6, read-out: Potency, a7GlyR G175K
  EC50: 2100 nM
α7-5HT3; [5]
  EC50: > 100 µM
α7^Q79G,G175K-GlyR
  EC50: 540 nM

## COc1ccc2[nH]cc(C(=O)O[C@H]3C[C@H]4CC[C@@H](C3)N4C)c2c1 [Compound 736]
[1]
  EC50: 78 nM
α7^Y115F,G175K-GlyR
  EC50: 0.57 µM
α7^Q79G,Y115F,G175K-GlyR
  EC50: 0.078 µM
α7^W77F,Q79G,G175K-GlyR
  EC50: 60 nM
α7-5HT3; [5]
  EC50: 0.83 µM
α7^Q79G,G175K-GlyR
  EC50: 44 nM

## CN1C2CCCC1CC(NC(=O)c1nn(C)c3ccccc13)C2 (centres unmarked) [Granisetron]
α7-GlyR
  activation of α7-GlyR: does not activate
α7-5HT3
  activation of α7-5HT3: does not activate

## c1ccc2c(c1)Sc1ccccc1N2CC1CN2CCC1CC2 (centres unmarked) [Mequitazine]
α7^Q79G,Y115F,G175K-GlyR
  EC50: > 10 µM
α7^W77F,Q79G,G175K-GlyR
  EC50: 150 nM
α7-5HT3; [5]
  EC50: > 30 µM

## CN1CCCC1c1cccnc1 (centres unmarked) [Nicotine]
α7^G175K-GlyR
  potency enhancement over α7-GlyR: 10 fold
[2]; read-out: Agonist potency; α7GlyR Q79G A298G G175K Y115F
  EC50: 3300 nM
[2]; read-out: Agonist potency; α7GlyR Q79G A298G P2161
  EC50: 1600 nM
[2]; read-out: Agonist potency; α7GlyR Q79G A298G Y115F K395 K396A
  EC50: 16500 nM
[2]; read-out: Agonist potency; α7GlyR Q79G G175K A298G
  EC50: 110 nM
[2]; read-out: Agonist potency; α7GlyR Q79G W77F A298G
  EC50: 3800 nM

## O=C(O[C@H]1C[C@H]2CC[C@@H](C1)N2)c1c[nH]c2ccccc12 [Nortropisetron]
[2]; [6]
  EC50: 8.4 nM
[2]; α7GlyR Q79G A298G Y115F K395 K396A; read-out: Agonist potency
  EC50: 6.3 nM

## CN(C)CCCN1c2ccccc2Sc2ccccc21 [Promazine]
α7^Q79G,Y115F,G175K-GlyR
  EC50: > 100 µM
α7-5HT3; [5]
  EC50: > 100 µM

## Cn1cc(C(=O)C(=O)NC2CN3CCC2CC3)c2ccccc21 (centres unmarked) [RS56812]
α7^Q79A-GlyR
  EC50: 3.5 µM
α7^Q79G-GlyR^A298G
  EC50: 610 nM
α7-GlyR; HEK cells, Table 2, read-out: Mean EC50 and SEM in parentheses, α7 GlyR
  EC50: 6.5 µM
α7^Q79G-GlyR
  EC50: 2000 nM
α7-GlyR^A298G
  EC50: 2300 nM
α7^Q79A-5HT3
  EC50: 6.8 µM
α7^Q79G-5HT3
  EC50: 1400 nM
α7^Q79S-5HT3
  EC50: 5.7 µM
α7-5HT3; HEK cells, Table 1, read-out: Mean EC50, α7-5HT3
  EC50: 10 µM

## CN1[C@@H]2CC[C@H]1C[C@@H](OC(=O)c1c[nH]c3ccccc13)C2 [Tropisetron]
α7^L131G-5HT3 HC
  potency enhancement: 2.3 fold
α7^Y115F-GlyR G175F
  potency enhancement at α7^Y115F-GlyR by additional mutation G175F: 2 fold
[3]
  suppression of action potential firing: silenced; also recorded: potently suppressed
α7^Y115F,G175K-GlyR; relative to α7^Y115F-GlyR
  potency enhancement at α7^Y115F-GlyR by additional mutation G175K: 5.6 fold
α7^Y115F-GlyR G175S
  potency enhancement at α7^Y115F-GlyR by additional mutation G175S: 9.3 fold
α7^Q79S,L131G,Q139L-GlyR
  improved potency over α7-GlyR: 3 fold
α7^Y115F-GlyR G175V
  potency enhancement at α7^Y115F-GlyR by additional mutation G175V: 16.7 fold
[2]; [6]
  EC50: 2.8 nM
[2]; α7GlyR Q79G G175K A298G; read-out: Agonist potency
  EC50: 0.6 nM
α7^Y115F-GlyR G175R
  potency enhancement at α7^Y115F-GlyR by additional mutation G175R: 5.8 fold
α7^Q79S,L131G-GlyR
  improved potency over α7-GlyR: 15 fold
[4]
  suppression of action potential firing: silenced; also recorded: potently suppressed
